From patent publication US20260000656A1, “ANTIFUNGAL AGENTS WITH ENHANCED ACTIVITY IN ACIDIC PH” (Scynexis, Inc., priority 2017, published 2026)
Like-named read-outs stand apart in the source and are kept apart here.

Test system: C. albicans isolates
Assay: Broth microdilution susceptibility (CLSI M27-A3) at different medium pH
Type: cell-based, Candida albicans
Experimental: Ten strains each of C. glabrata and C. albicans vaginal isolates were tested. The strains were obtained from recent clinical trial patients with vulvovaginal candidiasis (VVC) prior to treatment. Candida strains were obtained from the Mycology Reference Library (MRL) at Case Western Reserve University School of Medicine, Ohio, United States.
Susceptibility testing was performed using a broth microdilution method, according to CLSI M27-A3 guidelines (CLSI. 2008. Reference Method for Broth Dilution Antifungal Susceptibility Testing of Yeasts; Approved Standard—Third Edition. Clinical and Laboratory Standards Institute, CLSI document M27-A3). Antifungals and concentrations tested were SCY-078 and micafungin (both at concentrations within the range of 0.015 to 8 μg/ml) and fluconazole (at concentrations within the range of 0.125 to 64 μg/ml). A 0.1-ml C. albicans and C. glabrata inoculum of 0.5-2.5×10^3 blastospores/ml in RPMI 1640 medium was added to each microdilution well. ATCC strains of Candida parapsilosis and Candida krusei QC isolates were also included concurrently to ensure quality control. Antifungal susceptibility testing was carried out for each isolate in RPMI 1640 at pH 7 (to mimic RPMI medium used in testing the susceptibility of yeast by the CLSI M-27A3 document), pH 5.7, and pH 4.5 (to mimic the pH of the vaginal cavity) by adjusting the pH of the media using NaOH or HCl. […] Agents Chemother., 43: 1383-1386 (1999).
[…] SCY-078 powder was manufactured by Avista, Laboratories, NC. Micafungin and fluconazole were sourced from LGM Pharma.

[1] = 50% inhibition, pH 4.5, 24 h, 10 vaginal isolates

CC(C)[C@@H](C)[C@@]1(C)CC[C@]2(C)[C@H]3CC[C@@H]4[C@@]5(COC[C@]4(C)[C@@H](OC[C@](C)(N)C(C)(C)C)[C@H](n4ncnc4-c4ccncc4)C5)C3=CC[C@@]2(C)[C@@H]1C(=O)O [SCY-078]
0.125 to .25 µg/mL: MIC range (50% inhibition, pH 5.72, 24 h, 10 vaginal isolates)
0.5 µg/mL: MIC90 (Candida albicans, 24 h, pH 5.72, 100% inhibition, pH 5.72, 24 hours, 10 isolates, read-out: MIC90) | MIC (Candida albicans, 24 h, pH 5.72, C. albicans MRL 34366, pH 5.72, 24 hours, read-out: MIC (100% inhibition))
<0.016 to 0.031 µg/mL: MIC range [1]
0.125 µg/mL: MIC (Candida albicans, 24 h, pH 5.72, C. albicans MRL 34367, pH 5.72, 24 hours, read-out: MIC (50% inhibition))
0.031 µg/mL: MIC50 (Candida albicans, 24 h, pH 4.5, 100% inhibition, pH 4.5, 24 hours, 10 isolates, read-out: MIC50) | MIC90 (Candida albicans, 24 h, pH 4.5, 100% inhibition, pH 4.5, 24 hours, 10 isolates, read-out: MIC90) | MIC (Candida albicans, 24 h, pH 4.5, C. albicans MRL 34366, pH 4.5, 24 hours, read-out: MIC (50% inhibition)) | MIC (Candida albicans, 24 h, pH 4.5, C. albicans MRL 34366, pH 4.5, 24 hours, read-out: MIC (100% inhibition)) | MIC (Candida albicans, 24 h, pH 4.5, C. albicans MRL 34367, pH 4.5, 24 hours, read-out: MIC (100% inhibition)) | MIC (Candida albicans, 24 h, pH 4.5, C. albicans MRL 34385, pH 4.5, 24 hours, read-out: MIC (100% inhibition)) | MIC (Candida albicans, 24 h, pH 4.5, C. albicans MRL 34389, pH 4.5, 24 hours, read-out: MIC (100% inhibition)) | MIC (Candida albicans, 24 h, pH 4.5, C. albicans MRL 34399, pH 4.5, 24 hours, read-out: MIC (100% inhibition)) | MIC (Candida albicans, 24 h, pH 4.5, C. albicans MRL 34449, pH 4.5, 24 hours, read-out: MIC (100% inhibition))
0.25 µg/mL: MIC50 (Candida albicans, 24 h, pH 5.72, 50% inhibition, pH 5.72, 24 h, 10 vaginal isolates, read-out: MIC50) | MIC90 (Candida albicans, 24 h, pH 5.72, 50% inhibition, pH 5.72, 24 h, 10 vaginal isolates, read-out: MIC90) | MIC50 (Candida albicans, 24 h, pH 5.72, 100% inhibition, pH 5.72, 24 hours, 10 isolates, read-out: MIC50) | MIC (Candida albicans, 24 h, pH 5.72, C. albicans MRL 34366, pH 5.72, 24 hours, read-out: MIC (50% inhibition))
<0.016 to 4 µg/mL: MIC range (100% inhibition, pH 4.5, 24 hours, 10 isolates)
0.25 to 4 µg/mL: MIC range (100% inhibition, pH 7.0, 24 hours, 10 isolates)
< 0.016 µg/mL: MIC50 [1] | MIC90 [1] | MIC50 (Candida albicans, 24 h, pH 4.5, 50% inhibition, pH 4.5, 24 h, 10 vaginal isolates, read-out: MIC50) | MIC90 (Candida albicans, 24 h, pH 4.5, 50% inhibition, pH 4.5, 24 h, 10 vaginal isolates, read-out: MIC90) | MIC (Candida albicans, 24 h, pH 4.5, C. albicans MRL 34367, pH 4.5, 24 hours, read-out: MIC (50% inhibition)) | MIC (Candida albicans, 24 h, pH 4.5, C. albicans MRL 34372, pH 4.5, 24 hours, read-out: MIC (50% inhibition)) | MIC (Candida albicans, 24 h, pH 4.5, C. albicans MRL 34372, pH 4.5, 24 hours, read-out: MIC (100% inhibition)) | MIC (Candida albicans, 24 h, pH 4.5, C. albicans MRL 34373, pH 4.5, 24 hours, read-out: MIC (50% inhibition)) | MIC (Candida albicans, 24 h, pH 4.5, C. albicans MRL 34373, pH 4.5, 24 hours, read-out: MIC (100% inhibition)) | MIC (Candida albicans, 24 h, pH 4.5, C. albicans MRL 34374, pH 4.5, 24 hours, read-out: MIC (50% inhibition)) | MIC (Candida albicans, 24 h, pH 4.5, C. albicans MRL 34374, pH 4.5, 24 hours, read-out: MIC (100% inhibition)) | MIC (Candida albicans, 24 h, pH 4.5, C. albicans MRL 34385, pH 4.5, 24 hours, read-out: MIC (50% inhibition)) | MIC (Candida albicans, 24 h, pH 4.5, C. albicans MRL 34389, pH 4.5, 24 hours, read-out: MIC (50% inhibition)) | MIC (Candida albicans, 24 h, pH 4.5, C. albicans MRL 34399, pH 4.5, 24 hours, read-out: MIC (50% inhibition)) | MIC (Candida albicans, 24 h, pH 4.5, C. albicans MRL 34408, pH 4.5, 24 hours, read-out: MIC (50% inhibition)) | MIC (Candida albicans, 24 h, pH 4.5, C. albicans MRL 34449, pH 4.5, 24 hours, read-out: MIC (50% inhibition))
16 fold: reduction in MIC50 at pH 4.5 compared to the MIC50 at pH 7.0 (C. albicans isolates)
0.25 to 2 µg/mL: MIC range (100% inhibition, pH 5.72, 24 hours, 10 isolates)
4 µg/mL: MIC (Candida albicans, 24 h, pH 4.5, C. albicans MRL 34408, pH 4.5, 24 hours, read-out: MIC (100% inhibition))
0.125 to 0.5 µg/mL: MIC range (50% inhibition, pH 7.0, 24 h, 10 vaginal isolates)
